Measurements published in patent US20260262643A1, “HERBICIDAL BENZOXAZINES” (FMC CORPORATION, priority 2022, published 2026).

Columns and labels:
blackgrass [1] = assay: Test A preemergence; type: in vivo, Alopecurus myosuroides
How it was run: (§1)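 Seeds in loam–sand blend received a directed preemergence soil spray of compound in non-phytotoxic solvent with surfactant; postemergence plants (2–10 cm, one- to two-leaf stage) were sprayed with the same formulation. After 10 days in greenhouse, injury was rated visually versus untreated controls, 0 (no effect) to 100 (complete control).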

corn [2] = assay: Test A preemergence; type: in vivo, Zea mays
How it was run: as §1

foxtail, giant [3] = assay: Test A preemergence; type: in vivo, Setaria faberi
How it was run: as §1

goosegrass [4] = assay: Test A preemergence; type: in vivo, Eleusine indica
How it was run: as §1

kochia [5] = assay: Test A preemergence; type: in vivo, Bassia scoparia
How it was run: as §1

oat, wild [6] = assay: Test A preemergence; type: in vivo, Avena fatua
How it was run: as §1

pigweed, palmer [7] = assay: Test A preemergence; type: in vivo, Amaranthus palmeri
How it was run: as §1

ragweed [8] = assay: Test A preemergence; type: in vivo, Ambrosia artemisiifolia
How it was run: as §1

ryegrass, Italian [9] = assay: Test A preemergence; type: in vivo, Lolium multiflorum
How it was run: as §1

soybean [10] = assay: Test A preemergence; type: in vivo, Glycine max
How it was run: as §1

wheat [11] = assay: Test A preemergence; type: in vivo, Triticum aestivum
How it was run: as §1

blackgrass [12] = assay: Test A postemergence; type: in vivo, Alopecurus myosuroides
How it was run: as §1

corn [13] = assay: Test A postemergence; type: in vivo, Zea mays
How it was run: as §1

foxtail, giant [14] = assay: Test A postemergence; type: in vivo, Setaria faberi
How it was run: as §1

goosegrass [15] = assay: Test A postemergence; type: in vivo, Eleusine indica
How it was run: as §1

kochia [16] = assay: Test A postemergence; type: in vivo, Bassia scoparia
How it was run: as §1

oat, wild [17] = assay: Test A postemergence; type: in vivo, Avena fatua
How it was run: as §1

pigweed, palmer [18] = assay: Test A postemergence; type: in vivo, Amaranthus palmeri
How it was run: as §1

ragweed [19] = assay: Test A postemergence; type: in vivo, Ambrosia artemisiifolia
How it was run: as §1

ryegrass, Italian [20] = assay: Test A postemergence; type: in vivo, Lolium multiflorum
How it was run: as §1

soybean [21] = assay: Test A postemergence; type: in vivo, Glycine max
How it was run: as §1

wheat [22] = assay: Test A postemergence; type: in vivo, Triticum aestivum
How it was run: as §1

galium = assay: Test A postemergence; type: in vivo, Galium aparine
How it was run: as §1

horseweed = assay: Test A postemergence; type: in vivo, Erigeron canadensis
How it was run: as §1

barnyardgrass = assay: Test B flooded paddy test; type: in vivo, Echinochloa crus-galli; details: 250 g ai/ha, Flood, 13 days, 0 to 100 scale (0 no effect, 100 complete control)
How it was run: (§2)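 Flooded to 3 cm at treatment time, 2-leaf plants got the test compound applied straight into the paddy water. They then stayed under constant flood in a greenhouse for 13 days. Ratings used a 0 to 100 visual scale.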

ducksalad = assay: Test B flooded paddy test; type: in vivo, Heteranthera limosa; details: 250 g ai/ha, Flood, 13 days, 0 to 100 scale (0 no effect, 100 complete control)
How it was run: as §2

rice = assay: Test B flooded paddy test; type: in vivo, Oryza sativa; details: 250 g ai/ha, Flood, 13 days, 0 to 100 scale (0 no effect, 100 complete control)
How it was run: as §2

sedge, umbrella = assay: Test B flooded paddy test; type: in vivo, Cyperus difformis; details: 250 g ai/ha, Flood, 13 days, 0 to 100 scale (0 no effect, 100 complete control)
How it was run: as §2

[23] = 125 g ai/ha, visual injury after 10 days, 0 to 100 scale, 0 is no effect, 100 is complete control
[24] = 500 g ai/ha, 0 to 100 scale (0 no effect, 100 complete control), 10 days
[25] = 125 g ai/ha, postemergence, 10 days, 0 to 100 scale, 0 no effect, 100 complete control
[26] = 500 g ai/ha, postemergence, 10 days, visual injury, 0 to 100 scale (0 no effect, 100 complete control)
[27] = 125 g ai/ha, postemergence, 10 days, visual injury, 0 to 100 scale (0 no effect, 100 complete control)
[28] = 500 g ai/ha, Postemergence, 0 to 100 scale

CCc1ccc(-n2cnc(C(C)(C)C)n2)cc1C(=O)N1C[C@H](C)Oc2c(Cl)cccc21 [Compound 102]
Plant response rating, Blackgrass (blackgrass [1]; [23]): 30
Plant response rating, Blackgrass (blackgrass [1]; [24]): 50
Plant response rating, Corn (corn [2]; [23]): 10
Plant response rating, Corn (corn [2]; [24]): 20
Plant response rating, Foxtail, Giant (foxtail, giant [3]; [23]): 90
Plant response rating, Foxtail, Giant (foxtail, giant [3]; [24]): 100
Plant response rating, Goosegrass (goosegrass [4]; [23]): 100
Plant response rating, Goosegrass (goosegrass [4]; [24]): 100
Plant response rating, Kochia (kochia [5]; [23]): 80
Plant response rating, Kochia (kochia [5]; [24]): 100
Plant response rating, Oat, Wild (oat, wild [6]; [23]): 40
Plant response rating, Oat, Wild (oat, wild [6]; [24]): 80
Plant response rating, Pigweed, Palmer (pigweed, palmer [7]; [23]): 100
Plant response rating, Pigweed, Palmer (pigweed, palmer [7]; [24]): 100
Plant response rating, Ragweed (ragweed [8]; [23]): 0
Plant response rating, Ragweed (ragweed [8]; [24]): 0
Plant response rating, Ryegrass, Italian (ryegrass, Italian [9]; [23]): 80
Plant response rating, Ryegrass, Italian (ryegrass, Italian [9]; [24]): 100
Plant response rating, Soybean (soybean [10]; [23]): 50
Plant response rating, Soybean (soybean [10]; [24]): 100
Plant response rating, Wheat (wheat [11]; [23]): 0
Plant response rating, Wheat (wheat [11]; [24]): 0
Blackgrass plant response rating (blackgrass [12]; [25]): 0
Plant response rating, Blackgrass (blackgrass [12]; [26]): 60
Corn plant response rating (corn [13]; [25]): 20
Plant response rating, Corn (corn [13]; [26]): 80
Foxtail, Giant plant response rating (foxtail, giant [14]; [25]): 80
Plant response rating, Foxtail, Giant (foxtail, giant [14]; [26]): 90
Goosegrass plant response rating (goosegrass [15]; [25]): 80
Plant response rating, Goosegrass (goosegrass [15]; [26]): 80
Kochia plant response rating (kochia [16]; [25]): 90
Plant response rating, Kochia (kochia [16]; [26]): 90
Oat, Wild plant response rating (oat, wild [17]; [25]): 10
Plant response rating, Oat, Wild (oat, wild [17]; [26]): 60
Pigweed, Palmer plant response rating (pigweed, palmer [18]; [25]): 90
Plant response rating, Pigweed, Palmer (pigweed, palmer [18]; [26]): 100
Ragweed plant response rating (ragweed [19]; [25]): 20
Plant response rating, Ragweed (ragweed [19]; [26]): 40
Ryegrass, Italian plant response rating (ryegrass, Italian [20]; [25]): 50
Plant response rating, Ryegrass, Italian (ryegrass, Italian [20]; [26]): 50
Soybean plant response rating (soybean [21]; [25]): 100
Plant response rating, Soybean (soybean [21]; [26]): 100
Wheat plant response rating (wheat [22]; [25]): 10
Plant response rating, Wheat (wheat [22]; [26]): 30
Galium plant response rating (galium; [25]): 50
Plant response rating, Galium (galium; [26]): 100
Horseweed plant response rating (horseweed; [25]): 0
Plant response rating, Horseweed (horseweed; [26]): 0
Plant response rating, Barnyardgrass (barnyardgrass): 10
Plant response rating, Ducksalad (ducksalad): 65
Plant response rating, Rice (rice): 10
Plant response rating, Sedge, Umbrella (sedge, umbrella): 95

Cc1cccc2c1O[C@@H](C)CN2C(=O)c1cccc(-n2cnc(C(C)C)n2)c1 [Compound 55]
Plant response rating, Blackgrass (blackgrass [1]; [23]): 80
Plant response rating, Blackgrass (blackgrass [1]; [24]): 90
Plant response rating, Corn (corn [2]; [23]): 0
Plant response rating, Corn (corn [2]; [24]): 30
Plant response rating, Foxtail, Giant (foxtail, giant [3]; [23]): 100
Plant response rating, Foxtail, Giant (foxtail, giant [3]; [24]): 100
Plant response rating, Goosegrass (goosegrass [4]; [23]): 100
Plant response rating, Goosegrass (goosegrass [4]; [24]): 100
Plant response rating, Kochia (kochia [5]; [23]): 90
Plant response rating, Kochia (kochia [5]; [24]): 100
Plant response rating, Oat, Wild (oat, wild [6]; [23]): 70
Plant response rating, Oat, Wild (oat, wild [6]; [24]): 90
Plant response rating, Pigweed, Palmer (pigweed, palmer [7]; [23]): 80
Plant response rating, Pigweed, Palmer (pigweed, palmer [7]; [24]): 90
Plant response rating, Ragweed (ragweed [8]; [23]): 20
Plant response rating, Ragweed (ragweed [8]; [24]): 40
Plant response rating, Ryegrass, Italian (ryegrass, Italian [9]; [23]): 80
Plant response rating, Ryegrass, Italian (ryegrass, Italian [9]; [24]): 100
Plant response rating, Soybean (soybean [10]; [23]): 30
Plant response rating, Soybean (soybean [10]; [24]): 100
Plant response rating, Wheat (wheat [11]; [23]): 40
Plant response rating, Wheat (wheat [11]; [24]): 60
Plant response rating, Blackgrass (blackgrass [12]; [27]): 60
Plant response rating, Blackgrass (blackgrass [12]; [28]): 80
Plant response rating, Corn (corn [13]; [27]): 40
Plant response rating, Corn (corn [13]; [28]): 80
Plant response rating, Foxtail, Giant (foxtail, giant [14]; [27]): 100
Plant response rating, Foxtail, Giant (foxtail, giant [14]; [28]): 100
Plant response rating, Goosegrass (goosegrass [15]; [27]): 50
Plant response rating, Goosegrass (goosegrass [15]; [28]): 90
Plant response rating, Kochia (kochia [16]; [27]): 80
Plant response rating, Kochia (kochia [16]; [28]): 90
Plant response rating, Oat, Wild (oat, wild [17]; [27]): 40
Plant response rating, Oat, Wild (oat, wild [17]; [28]): 80
Plant response rating, Pigweed, Palmer (pigweed, palmer [18]; [27]): 40
Plant response rating, Pigweed, Palmer (pigweed, palmer [18]; [28]): 60
Plant response rating, Ragweed (ragweed [19]; [27]): 50
Plant response rating, Ragweed (ragweed [19]; [28]): 70
Plant response rating, Ryegrass, Italian (ryegrass, Italian [20]; [27]): 50
Plant response rating, Ryegrass, Italian (ryegrass, Italian [20]; [28]): 100
Plant response rating, Soybean (soybean [21]; [27]): 100
Plant response rating, Soybean (soybean [21]; [28]): 100
Plant response rating, Wheat (wheat [22]; [27]): 40
Plant response rating, Wheat (wheat [22]; [28]): 60
Plant response rating, Galium (galium; [27]): 100
Plant response rating, Galium (galium; [28]): 100
Plant response rating, Horseweed (horseweed; [27]): 0
Plant response rating, Horseweed (horseweed; [28]): 30
Plant response rating, Barnyardgrass (barnyardgrass): 30
Plant response rating, Ducksalad (ducksalad): 75
Plant response rating, Rice (rice): 0
Plant response rating, Sedge, Umbrella (sedge, umbrella): 95

Cc1cccc2c1O[C@@H](C)CN2C(=O)c1cccc(-n2cnc(Cl)n2)c1 [Compound 69]
Plant response rating, Blackgrass (blackgrass [1]; [23]): 40
Plant response rating, Blackgrass (blackgrass [1]; [24]): 90
Plant response rating, Corn (corn [2]; [23]): 30
Plant response rating, Corn (corn [2]; [24]): 30
Plant response rating, Foxtail, Giant (foxtail, giant [3]; [23]): 90
Plant response rating, Foxtail, Giant (foxtail, giant [3]; [24]): 90
Plant response rating, Goosegrass (goosegrass [4]; [23]): 90
Plant response rating, Goosegrass (goosegrass [4]; [24]): 100
Plant response rating, Kochia (kochia [5]; [23]): 60
Plant response rating, Kochia (kochia [5]; [24]): 70
Plant response rating, Oat, Wild (oat, wild [6]; [23]): 20
Plant response rating, Oat, Wild (oat, wild [6]; [24]): 70
Plant response rating, Pigweed, Palmer (pigweed, palmer [7]; [23]): 20
Plant response rating, Pigweed, Palmer (pigweed, palmer [7]; [24]): 90
Plant response rating, Ragweed (ragweed [8]; [23]): 0
Plant response rating, Ragweed (ragweed [8]; [24]): 0
Plant response rating, Ryegrass, Italian (ryegrass, Italian [9]; [23]): 80
Plant response rating, Ryegrass, Italian (ryegrass, Italian [9]; [24]): 80
Plant response rating, Soybean (soybean [10]; [23]): 0
Plant response rating, Soybean (soybean [10]; [24]): 0
Plant response rating, Wheat (wheat [11]; [23]): 10
Plant response rating, Wheat (wheat [11]; [24]): 20
Plant response rating, Blackgrass (blackgrass [12]; [27]): 0
Plant response rating, Blackgrass (blackgrass [12]; [28]): 60
Plant response rating, Corn (corn [13]; [27]): 10
Plant response rating, Corn (corn [13]; [26]): 30
Plant response rating, Foxtail, Giant (foxtail, giant [14]; [27]): 20
Plant response rating, Foxtail, Giant (foxtail, giant [14]; [26]): 80
Plant response rating, Goosegrass (goosegrass [15]; [27]): 0
Plant response rating, Goosegrass (goosegrass [15]; [26]): 20
Plant response rating, Kochia (kochia [16]; [27]): 20
Plant response rating, Kochia (kochia [16]; [26]): 60
Plant response rating, Oat, Wild (oat, wild [17]; [26]): 30
Plant response rating, Pigweed, Palmer (pigweed, palmer [18]; [26]): 40
Plant response rating, Ragweed (ragweed [19]; [26]): 30
Plant response rating, Ryegrass, Italian (ryegrass, Italian [20]; [26]): 70
Plant response rating, Soybean (soybean [21]; [26]): 100
Plant response rating, Wheat (wheat [22]; [26]): 10
Plant response rating, Galium (galium; [27]): 60
Plant response rating, Galium (galium; [26]): 100
Plant response rating, Horseweed (horseweed; [27]): 0
Plant response rating, Horseweed (horseweed; [26]): 0
Plant response rating, Barnyardgrass (barnyardgrass): 0
Plant response rating, Ducksalad (ducksalad): 0
Plant response rating, Rice (rice): 0
Plant response rating, Sedge, Umbrella (sedge, umbrella): 0
